Test systems include MALME-3M melanoma; CCRF-CEM leukemia; HL-60(TB) leukemia; CAKI-1 renal; OVCAR-5 ovarian; SNB-19 CNS; SNB-75 CNS; LOX IMVI melanoma; SK-MEL-2 melanoma; U251 CNS.
Common to all, as to test: inhibition of tumour cell growth, NCI panel, 48 h

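Cultured in 96-well plates, cells were exposed to test compound for 48 hours across five concentrations. GI50 is the concentration that inhibits growth by half. At the TGI there is no net growth.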

As to `CCOC(=O)c1cnn(-c2ccnc3c(C(F)(F)F)cccc23)c1N`, the GI50 with MALME-3M melanoma was above 100 µM; with CCRF-CEM leukemia, above 100000 nM; with HL-60(TB) leukemia, above 100 µM; in the test with CAKI-1 renal, above 100000 nM; in the test on OVCAR-5 ovarian it was above 100 µM; in the test with SNB-19 CNS, above 100000 nM. The GI50 was 51.7 µM in the test with SNB-75 CNS, above 100000 nM with LOX IMVI melanoma, above 100 µM in the test with SK-MEL-2 melanoma and above 100000 nM in the test on U251 CNS. For the same compound, the TGI in the test with MALME-3M melanoma, with CCRF-CEM leukemia, in the test with HL-60(TB) leukemia, in the test on CAKI-1 renal, in the test with OVCAR-5 ovarian and in the test with SNB-19 CNS was above 100 µM each time. Also, the TGI in the test on SNB-75 CNS, in the test on LOX IMVI melanoma, with SK-MEL-2 melanoma and with U251 CNS was above 100 µM throughout.
Take `O=c1[nH]cc(OCC(F)(F)F)c(=O)[nH]1`: the TGI in the test with MALME-3M melanoma, with CCRF-CEM leukemia, with HL-60(TB) leukemia, in the test with CAKI-1 renal, with OVCAR-5 ovarian and with SNB-19 CNS was above 100 µM each time. Moreover, the TGI in the test on SNB-75 CNS, with LOX IMVI melanoma, in the test with SK-MEL-2 melanoma and in the test on U251 CNS was above 100 µM each time.
`C[C@H](CS(C)(=O)=O)Nc1ncc2cc(Oc3ccc(F)cc3F)c(=O)n(C)c2n1`: the GI50 in the test with MALME-3M melanoma was above 25 µM; in the test on CCRF-CEM leukemia it was above 25000 nM; in the test with HL-60(TB) leukemia it was above 25 µM; in the test with CAKI-1 renal, above 25000 nM; in the test on OVCAR-5 ovarian, above 25 µM; in the test on SNB-19 CNS it was above 25000 nM. In addition, the GI50 in the test on SNB-75 CNS is above 25 µM; in the test with LOX IMVI melanoma, above 25000 nM; in the test with SK-MEL-2 melanoma, above 25 µM; in the test on U251 CNS, above 25000 nM. Moreover, the TGI with MALME-3M melanoma, in the test with CCRF-CEM leukemia, in the test with HL-60(TB) leukemia, in the test on CAKI-1 renal, in the test on OVCAR-5 ovarian and in the test with SNB-19 CNS was above 25 µM throughout. In addition, the TGI in the test with SNB-75 CNS, in the test on LOX IMVI melanoma, in the test with SK-MEL-2 melanoma and with U251 CNS was above 25 µM throughout.
`COc1ccc2c(c1)C(=O)c1c-2n(CCCN2CCOCC2)c(=O)c2ccccc12`: the GI50 in the test on MALME-3M melanoma was 3.44 µM; in the test with CCRF-CEM leukemia, 1190 nM; in the test with HL-60(TB) leukemia, 4.59 µM; in the test on CAKI-1 renal, 1790 nM; with OVCAR-5 ovarian, 6.18 µM; with SNB-19 CNS, 2650 nM. The GI50 in the test with SNB-75 CNS is 3.86 µM; with LOX IMVI melanoma, 1450 nM; in the test on SK-MEL-2 melanoma, 14.5 µM; in the test with U251 CNS, 2010 nM. The TGI in the test with MALME-3M melanoma is 18.7 µM; with CCRF-CEM leukemia, above 20.7 µM; with HL-60(TB) leukemia it was above 100 µM; in the test on CAKI-1 renal it was 8.07 µM; in the test on OVCAR-5 ovarian, above 100 µM; with SNB-19 CNS, 30.9 µM. In addition, the TGI worked out at 23.1 µM with SNB-75 CNS, 3.36 µM in the test with LOX IMVI melanoma, 63.4 µM in the test with SK-MEL-2 melanoma and 11.6 µM in the test with U251 CNS.
`COc1cnc2c(c1)C(=O)c1c-2n(CCCN2CCCC2)c(=O)c2cc(Cl)ccc12`: the GI50 in the test with MALME-3M melanoma was 5.9 µM; with CCRF-CEM leukemia, 25 nM; in the test with HL-60(TB) leukemia, 6.23 µM; with CAKI-1 renal, 34 nM; in the test on OVCAR-5 ovarian, 5.02 µM; in the test on SNB-19 CNS it was 1030 nM. Further, the GI50 in the test with SNB-75 CNS was 0.347 µM; in the test on LOX IMVI melanoma it was 42.3 nM; with SK-MEL-2 melanoma, 7.16 µM; with U251 CNS, 38.3 nM. Moreover, the TGI came out at 15.3 µM in the test with MALME-3M melanoma; 9.05 µM with CCRF-CEM leukemia; 15.2 µM in the test on HL-60(TB) leukemia; 8.18 µM in the test with CAKI-1 renal; 11.3 µM with OVCAR-5 ovarian; 11.7 µM with SNB-19 CNS. The TGI in the test on SNB-75 CNS came out at 7.79 µM; in the test with LOX IMVI melanoma, 5.96 µM; in the test with SK-MEL-2 melanoma it was 22.6 µM; in the test on U251 CNS, 7.96 µM.
For the compound `COc1ccccc1-c1c(C)nn2c(NCc3ccccn3)cc(C)nc12`, the GI50 in the test on MALME-3M melanoma is above 17.1 µM; in the test on CCRF-CEM leukemia, 6890 nM; in the test with HL-60(TB) leukemia, 20.4 µM; in the test with CAKI-1 renal, 12400 nM; in the test on OVCAR-5 ovarian, above 50 µM; with SNB-19 CNS, above 50000 nM. Also, the GI50 in the test on SNB-75 CNS is above 50 µM; with LOX IMVI melanoma, 29800 nM; in the test on SK-MEL-2 melanoma, above 50 µM; in the test on U251 CNS it was above 41900 nM. In addition, the TGI with MALME-3M melanoma, with CCRF-CEM leukemia, with HL-60(TB) leukemia, in the test on CAKI-1 renal, with OVCAR-5 ovarian and in the test with SNB-19 CNS was above 50 µM each time. Moreover, the TGI in the test with SNB-75 CNS, in the test with LOX IMVI melanoma, in the test with SK-MEL-2 melanoma and with U251 CNS was above 50 µM throughout.
`CCC1CN2CCc3cc(OC)c(OC)cc3C2CC1CC1c2cc(OC)c(OC)cc2CCN1C(=O)CNC(=O)OC(C)(C)C` (stereo not given): the TGI came to 39.6 µM in the test on MALME-3M melanoma; 15.2 µM in the test with CCRF-CEM leukemia; 17.6 µM in the test with HL-60(TB) leukemia; 65.1 µM in the test on CAKI-1 renal; 77.3 µM with OVCAR-5 ovarian; 53.5 µM in the test on SNB-19 CNS. The TGI in the test on SNB-75 CNS is 73.1 µM; in the test on LOX IMVI melanoma, 73.6 µM; with SK-MEL-2 melanoma it was 33.1 µM; in the test with U251 CNS it was above 100 µM.
Turning to `CCN1C(=O)N(CC)C2C1NN=c1s/c(=C3\C(=O)N(C)c4ccccc43)c(=O)n12` (stereo not given), the GI50 was 0.993 µM in the test on MALME-3M melanoma; 1370 nM with CCRF-CEM leukemia; 0.434 µM in the test on HL-60(TB) leukemia; 448 nM in the test on CAKI-1 renal; 3.3 µM in the test on OVCAR-5 ovarian; 2890 nM in the test with SNB-19 CNS. Also, the GI50 with SNB-75 CNS was 0.397 µM; with LOX IMVI melanoma, 958 nM; with SK-MEL-2 melanoma it was 3.06 µM; with U251 CNS, 1970 nM. Besides, the TGI in the test on MALME-3M melanoma was above 100 µM; in the test on CCRF-CEM leukemia, above 100 µM; in the test on HL-60(TB) leukemia it was 2.05 µM; with CAKI-1 renal, 97.4 µM; in the test on OVCAR-5 ovarian, above 100 µM; with SNB-19 CNS, above 100 µM. The TGI in the test with SNB-75 CNS is 20.3 µM; in the test on LOX IMVI melanoma, above 100 µM; in the test with SK-MEL-2 melanoma it was above 100 µM; in the test with U251 CNS, above 68.9 µM.
